# From patent publication US8354387B2, “Methods and compositions for delivering siRNA into mammalian cells” (Centre National de la Recherche Scientifique, priority 2004, dated 2013)
# Columns and labels:
# [1] = test system: human fibroblasts (Hs68) or HeLa cells; assay: Delivery of pRL-SV40 luciferase plasmid with inhibitors of the endosomal pathway or at 4° C.; assay type: cell-based
# Procedure: FIG. 1: MPG-mediated gene delivery in the presence of inhibitors of the endosomal pathway. A/ MPG/DNA complexes formed at a charge ratio of 5/1 with 100 ng pRL-SV40 plasmid encoding the reporter gene luciferase were overlaid onto human fibroblasts (Hs68) in the presence of either bafilomycin A (Baf-A: 150 nM), cytochalasin B (Cy-B: 50 μg/ml) or chloroquine (Chi: 100 μM). After 48 hrs cell extracts were prepared and luciferase activity was measured and reported as a function of total protein (black). Similar experiments were performed using a lipid-based delivery system, Lipofectamine™, as a control (white). Experiments in the absence of inhibitors were also performed using an MPG peptide lacking a C-terminal cysteamide group (grey). B/ A 36mer fluorescein labelled oligonucleotide was complexed with MPG at a charge ratio of 5/1. Complexes were then overlaid onto cultured Hela cells in the presence of bafilomycin A (middle panel) or cytochalasin B (bottom panel) and cellular localization of the oligonucleotide was monitored by fluorescence microscopy on living cells 1 hr after transfection. A control experiment with free oligonucleotide is shown in the top panel.
# Hs68, Cos-7 and HeLa cell lines were cultured in Dulbecco's Modified Eagle's Medium supplemented with 2 mM glutamine, 1% antibiotics (streptomycin 10 000 μg/ml, penicillin, 10,000 IU/ml) and 10% (w/v) fetal calf serum (FCS) at 37° C. in a humidified atmosphere containing 5% CO2 as described previously (18). For MPG or MPG^ΔNLS-mediated gene delivery, peptide carrier/DNA complexes were formed in DMEM or PBS (500 μl of DMEM containing 100 ng of DNA complexed with MPG at a charge ratio 5:1) and incubated for 30 min at 37° C. Cells grown to 60% confluence were then overlaid with these preformed complexes. […]
# For cell cycle-dependent studies, Hs68 fibroblasts were synchronized by serum deprivation for 40 hrs, then restimulated to enter the cycle and grow into early G1 for 4 hrs by addition of fresh DMEM supplemented with 20% FCS, and incubated in the presence of MPG/DNA complexes as described above. Luciferase activity was monitored as described previously (19) and control transfection experiments were performed using Lipofectamine™. […]
# A plasmid encoding the reporter gene luciferase, pRL-SV40, was associated with MPG carrier at a charge ratio of 5:1 (MPG/DNA) and overlaid onto cultured human fibroblasts (Hs68) or HeLa cells in the presence of either bafilomycin A (150 nM), chloroquine (100 μM) or cytochalasin B (50 μg/ml). Transfection efficiency was monitored 30 hrs after transfection and Lipofectamine™ was used as a standard control method for transfection. […]
# [2] = test system: human breast cancer cell line MCF-7; assay: Proliferation of MCF-7 cancer cells; assay type: cell-based; conditions: controls, MCF-7, 8 days
# Procedure: FIG. 7: Cyclin-B1 siRNA inhibits tumour growth. Exponentially MCF-7 growing cells (1-3 10^4) were incubated with different concentrations (10 nM, 50 nM, 100 nM) of siRNA or mismatched siRNA complexed or not with MPG (molecular ratio 1:10) and cell proliferation was assessed 8 days post incubation.
# Cell culture, MPG mediated transfection. Adherent fibroblastic Hs68 (ATCC no CRL-1635), 293 (ATCC no CRL-1573), HeLa (ATCC no CCL-2) and MCF-7 (ATCC no HTB-22) cell lines were cultured in Dulbecco's Modified Eagle's Medium supplemented with […] glutamine, 1% antibiotics (streptomycin 10,000 μg/ml, penicillin, 10,000 IU/ml) and 10% (w/v) fetal calf serum (FCS), at 37° C. in a humidified atmosphere containing 5% CO2. For MPG-mediated delivery of siRNA, complexes were formed by incubation of different concentrations of siRNA from 10 nM to 1 μM with MPG at a molecular ratio of 1:10, respectively, in 500 μl of DMEM for 30 min at 37° C. Cells grown to 40 to 60% confluence were then overlaid with preformed complexes. After 30 min incubation at 37° C., 1 ml of fresh DMEM supplemented with 10% fetal calf serum was added directly to the cells, without removing the overlay of siRNA/MPG complexes, and cells were returned to the incubator. Different concentrations of siRNA or phosphorothioate oligonucleotide were transfected with cationic lipids, Lipofectamine or Oligofectamine (Invitrogen, Carlsbad, US), according to the guidelines of the manufacturer.
# As delivery of siRNA directed against cyclin B1 promotes efficient downregulation of both cyclin B1 mRNA and protein levels, it was looked for to what extent this might affect proliferation of cancer cells. The effect of siRNA was investigated on the human breast cancer cell line MCF-7. Exponentially growing cells (1-3 10^4) were incubated with different concentrations (10 nM, 50 nM, 100 nM) of siRNA or mismatched siRNA complexed or not with MPG (molecular ratio 1:10) and cell proliferation was assessed 8 days post incubation (FIG. 7).
# [3] = test system: mammalian cells; conditions: single- and double-stranded oligonucleotides; cited from earlier work
# [4] = test system: single- and double-stranded oligonucleotides (DNA); conditions: cited from earlier work
sequence,measurement,setting,value
"GALFLGFLGAAGSTMGAWSQPKKKRKV (carrier peptide) [MPG, bipartite amphipathic peptide derived from fusion peptide domain of HIV-1 gp41 and NLS of SV40 large T antigen]",localization of fluorescently labelled oligonucleotide in presence of inhibitors,"[1]; 36mer fluorescein oligonucleotide, charge ratio 5/1, Hela cells, after one hour",localized to the nucleus and to cytoplasm of the cells
same,increase of efficiency by chloroquine,"[1]; chloroquine 100 μM, pRL-SV40",10%
same,transfection efficiency in presence of bafilomycin A or cytochalasin B,"[1]; pRL-SV40, charge ratio 5:1, bafilomycin A 150 nM, cytochalasin B 50 μg/ml",not affected
same,reduction of transfection efficiency at 4° C.,[1]; transfection performed at 4° C.,12 fold
same,effect on cell proliferation,[2],"neither free siRNA or scrambled molecules, or the peptide carrier alone affected cell proliferation"
same,time to deliver oligonucleotides into mammalian cells,[3],< 1 h
same,affinity for single-stranded relative to double-stranded oligonucleotides,[4],at least 2 fold
